Data: ChEMBL document CHEMBL1201862, “PubChem BioAssay data set” (2004)
“And” between values parts separate entries of the source, which are not always exact repeats. Equal values may be shown once.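 Values below derive from 48-hour exposures of cells grown in 96-well plates, with endpoints linearly interpolated between the two concentrations bracketing the appropriate inhibition level. GI50: concentration for 50% inhibition of growth.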 The source made the active and inactive calls. No stated cut-off is given here; in the data, active = GI50 up to about 1.1 µM and inactive = higher.

Key:
Experiment in all cases: inhibition of tumour cell growth, NCI panel, 48 h
[1] = tested on: EKVX
[2] = tested on: IGROV-1
[3] = tested on: SK-MEL-28
[4] = tested on: KM-20L2
[5] = tested on: HCT-15
[6] = tested on: NCI-H23
[7] = tested on: SN12C
[8] = tested on: LXFL 529
[9] = tested on: DMS-114
[10] = tested on: SF-539
[11] = tested on: CCRF-CEM
[12] = tested on: SK-MEL-5
[13] = tested on: SF-268
[14] = tested on: SR
[15] = tested on: OVCAR-4
[16] = tested on: UACC-62
[17] = tested on: RXF 393
[18] = tested on: NCI-H460
[19] = tested on: HOP-18
[20] = tested on: SW-620
[21] = tested on: UO-31
[22] = tested on: HOP-92
[23] = tested on: HOP-62
[24] = tested on: HT-29
[25] = tested on: A498
[26] = tested on: SNB-19
[27] = tested on: HCC 2998
[28] = tested on: DLD-1
[29] = tested on: NCI-H522
[30] = tested on: KM12
[31] = tested on: SK-MEL-2
[32] = tested on: OVCAR-5
[33] = tested on: Malme-3M
[34] = tested on: M19-MEL
[35] = tested on: U-251
[36] = tested on: M14
[37] = tested on: K562
[38] = tested on: ACHN
[39] = tested on: HCT-116
[40] = tested on: HL-60
[41] = tested on: OVCAR-8
[42] = tested on: SF-295
[43] = tested on: SNB-78
[44] = tested on: COLO 205
[45] = tested on: 786-0
[46] = tested on: TK-10
[47] = tested on: UACC-257
[48] = tested on: MOLT-4
[49] = tested on: A549
[50] = tested on: XF498
[51] = tested on: PC-3
[52] = tested on: OVCAR-3
[53] = tested on: DMS-273
[54] = tested on: NCI/ADR-RES
[55] = tested on: LOX IMVI
[56] = tested on: RPMI-8226
[57] = tested on: SNB-75
[58] = tested on: SK-OV-3
[59] = tested on: NCI-H226

`Cc1ccc(NC(=O)C2C(=O)C(=O)N(c3ccc(C)cc3)C2=O)cc1` (stereo not given) was tested, and the GI50 [1] was > 100 µM (inactive), the GI50 [2] was > 100 µM (inactive) and the GI50 [3] was > 10 µM (inactive). For the same molecule, the GI50 [4] was > 100 µM (inactive), the GI50 [5] was over 100 µM and the GI50 [6] was > 100 µM (inactive). For the same molecule, the GI50 [7] was > 100 µM (inactive), the GI50 [8] was > 100 µM (inactive) and the GI50 [9] was > 100 µM (inactive). For the same molecule, the GI50 [10] was > 100 µM (inactive), the GI50 [11] was > 100 µM (inactive) and the GI50 [12] was > 100 µM (inactive). The GI50 [13] was > 100 µM (inactive), the GI50 [14] was > 100 µM (inactive) and the GI50 [15] was > 100 µM (inactive). For the same molecule, the GI50 [16] was > 100 µM (inactive), the GI50 [17] was 72.1 µM (inactive) and the GI50 [18] was > 100 µM (inactive). The GI50 [19] was > 100 µM (inactive), the GI50 [20] was > 100 µM (inactive) and the GI50 [21] was > 100 µM (inactive). For the same molecule, the GI50 [22] was > 100 µM (inactive), the GI50 [23] was 93.3 µM (inactive) and the GI50 [24] was > 100 µM (inactive). For the same molecule, the GI50 [25] was > 100 µM (inactive), the GI50 [26] was > 100 µM (inactive) and the GI50 [27] was > 100 µM (inactive). For the same molecule, the GI50 [28] was > 100 µM (inactive), the GI50 [29] was > 100 µM (inactive) and the GI50 [30] was > 100 µM (inactive). For the same molecule, the GI50 [31] was > 100 µM (inactive), the GI50 [32] was > 100 µM (inactive) and the GI50 [33] was > 100 µM (inactive). The GI50 [34] was > 100 µM (inactive), the GI50 [35] was 99.3 µM (inactive) and the GI50 [36] was > 100 µM (inactive). The GI50 [37] was > 100 µM (inactive), the GI50 [38] was > 100 µM (inactive) and the GI50 [39] was > 100 µM (inactive). For the same molecule, the GI50 [40] was > 100 µM (inactive), the GI50 [41] was > 100 µM (inactive) and the GI50 [42] was > 100 µM (inactive). For the same molecule, the GI50 [43] was > 100 µM (inactive), the GI50 [44] was > 100 µM (inactive) and the GI50 [45] was > 100 µM (inactive). The GI50 [46] was > 100 µM (inactive), the GI50 [47] was > 100 µM (inactive) and the GI50 [48] was > 100 µM (inactive). The GI50 [49] was > 100 µM (inactive).
`CCC1(O)CC(OC2CC(N(C)C)C(OC3CC4OC5CC(=O)C(C)OC5OC4C(C)O3)C(C)O2)c2c(cc3c(c2O)C(=O)c2c(O)ccc(O)c2C3=O)C1C(=O)OC` (stereo not given) was tested, and the GI50 [50] was 0.00828 µM (active), the GI50 [8] was > 0.01 µM (active) and the GI50 [9] was 0.00575 µM (active). The GI50 [51] was 0.00315 µM (active), the GI50 [22] was 0.00624 µM (active) and the GI50 [52] was > 10 nM (active) and 5.92 nM (active). The GI50 [28] was 0.00792 µM (active), the GI50 [29] was 0.00224 µM (active) and the GI50 [53] was 0.00365 µM (active). The GI50 [54] was 0.00479 µM (active), the GI50 [34] was 0.00887 µM (active) and the GI50 [36] was > 10 nM (active) and 5.62 nM (active). The GI50 [55] was 0.000953 µM (active) and the GI50 [43] was 0.0166 µM (active).
In the case of `COc1ccc2c3c1C(=O)CCCC3CO2` (stereo not given), the GI50 [50] is reported as > 100 µM (inactive), the GI50 [2] is reported as > 100 µM (inactive) and the GI50 [56] is reported as > 100 µM (inactive). For the same molecule, the GI50 [3] was > 100 µM (inactive), the GI50 [5] was over 100 µM and the GI50 [6] was > 100 µM (inactive). For the same molecule, the GI50 [7] was > 100 µM (inactive), the GI50 [8] was > 100 µM (inactive) and the GI50 [57] was > 100 µM (inactive). The GI50 [9] was > 100 µM (inactive), the GI50 [10] was > 100 µM (inactive) and the GI50 [11] was > 100 µM (inactive). The GI50 [12] was > 100 µM (inactive), the GI50 [13] was > 100 µM (inactive) and the GI50 [15] was > 100 µM (inactive). The GI50 [16] was > 100 µM (inactive), the GI50 [17] was > 100 µM (inactive) and the GI50 [18] was > 100 µM (inactive). For the same molecule, the GI50 [20] was > 100 µM (inactive), the GI50 [21] was > 100 µM (inactive) and the GI50 [22] was > 100 µM (inactive). The GI50 [23] was > 100 µM (inactive), the GI50 [24] was > 100 µM (inactive) and the GI50 [25] was > 100 µM (inactive). The GI50 [52] was > 100 µM (inactive), the GI50 [26] was > 100 µM (inactive) and the GI50 [27] was > 100 µM (inactive). For the same molecule, the GI50 [28] was > 100 µM (inactive), the GI50 [29] was > 100 µM (inactive) and the GI50 [30] was > 100 µM (inactive). For the same molecule, the GI50 [53] was > 100 µM (inactive), the GI50 [31] was > 100 µM (inactive) and the GI50 [32] was > 100 µM (inactive). For the same molecule, the GI50 [33] was > 100 µM (inactive), the GI50 [34] was > 100 µM (inactive) and the GI50 [35] was > 100 µM (inactive). For the same molecule, the GI50 [36] was > 100 µM (inactive), the GI50 [37] was > 100 µM (inactive) and the GI50 [55] was > 100 µM (inactive). The GI50 [38] was > 100 µM (inactive), the GI50 [58] was > 100 µM (inactive) and the GI50 [59] was > 100 µM (inactive). The GI50 [40] was > 100 µM (inactive), the GI50 [41] was > 100 µM (inactive) and the GI50 [42] was > 100 µM (inactive). The GI50 [43] was > 100 µM (inactive), the GI50 [44] was > 100 µM (inactive) and the GI50 [45] was > 100 µM (inactive). For the same molecule, the GI50 [46] was > 100 µM (inactive), the GI50 [47] was > 100 µM (inactive) and the GI50 [48] was > 100 µM (inactive). The GI50 [49] was > 100 µM (inactive).
